Active and inactive are the calls of the source. The rule behind the calls is not given here.
Assays:
MV4-11 [1] = assay: Upregulation of CD14 expression in human MV4-11 cells at 10 nM incubated for 72 hrs; type: functional, cell-based
MV4-11 [2] = assay: Effect on cell cycle distribution in human MV4-11 cells assessed as accumulation at G0/G1 phase at 100 nM incubated for 72 hrs; type: functional, cell-based
HCC4006 [3] = assay: Antiproliferative activity against human HCC4006 cells assessed as inhibition of cell proliferation at 10 nM incubated for 72 hrs by SRB assay relative to control; type: functional
MCF7 = assay: Antiproliferative activity against human MCF7 cells at 100 nM incubated for 72 hrs by SRB assay relative to control; type: functional
Rattus norvegicus [4] = assay: Induction of calcium transport in intestine of vitamin D-deficient Sprague-Dawley rat at 260 pmol, ip administered daily for 4 days; type: functional, organism-based; conditions: time 4.0 day
HL-60 [5] = assay: Antiproliferative activity against human HL-60 cells at 100 nM incubated for 72 hrs by MTT assay relative to control; type: functional
ROS 17/2.8 = assay: Induction of transcriptional activity in rat ROS 17/2.8 cells transfected with CYP24 incubated for 16 hrs by Luciferase reporter gene assay; type: functional, cell-based
HCC4006 [6] = assay: Antiproliferative activity against human HCC4006 cells incubated for 72 hrs by SRB assay; type: functional, cell-based; conditions: HCC4006, 72 h
MV4-11 [7] = assay: Antiproliferative activity against human MV4-11 cells at 100 nM incubated for 72 hrs by MTT assay relative to control; type: functional
MV4-11 [8] = assay: Effect on cell cycle distribution in human MV4-11 cells assessed as decrease in accumulation at G2/M phase at 10 to 1000 nM incubated for 72 hrs; type: functional, cell-based; conditions: dose 10-1000 nM
Rattus norvegicus [9] = assay: Induction of calcium mobilization in bone of vitamin D-deficient Sprague-Dawley rat at 2340 pmol, ip administered daily for 4 days; type: functional, organism-based; conditions: Bone element, time 4.0 day
HL-60 [10] = assay: Antiproliferative activity against human HL-60 cells at 1000 nM incubated for 72 hrs by MTT assay relative to control; type: functional
HCC4006 [11] = assay: Antiproliferative activity against human HCC4006 cells assessed as inhibition of cell proliferation at 1 nM incubated for 72 hrs by SRB assay relative to control; type: functional
NCI-H1975 = assay: Antiproliferative activity against human NCI-H1975 cells harboring EGFR mutation incubated for 72 hrs by SRB assay; type: functional, cell-based
MCF-10A = assay: Antiproliferative activity against human MCF-10A cells incubated for 72 hrs by SRB assay; type: toxicity, cell-based
NCI-H1650 = assay: Antiproliferative activity against human NCI-H1650 cells harboring EGFR mutation incubated for 72 hrs by SRB assay; type: functional, cell-based
CAL-51 = assay: Antiproliferative activity against human CAL-51 cells incubated for 72 hrs by SRB assay; type: functional, cell-based
MV4-11 [12] = assay: Antiproliferative activity against human MV4-11 cells at 1000 nM incubated for 72 hrs by MTT assay relative to control; type: functional
MDA-MB-231 = assay: Antiproliferative activity against human MDA-MB-231 cells incubated for 72 hrs by SRB assay; type: functional, cell-based
MV4-11 [13] = assay: Upregulation of CD11b expression in human MV4-11 cells at 10 nM incubated for 72 hrs; type: functional, cell-based
MV4-11 [14] = assay: Effect on cell cycle distribution in human MV4-11 cells assessed as accumulation at G0/G1 phase at 10 nM incubated for 72 hrs; type: functional, cell-based
Rattus norvegicus [15] = assay: Induction of calcium mobilization in bone of vitamin D-deficient Sprague-Dawley rat at 780 pmol, ip administered daily for 4 days; type: functional, organism-based; conditions: Bone element, time 4.0 day
MV4-11 [16] = assay: Antiproliferative activity against human MV4-11 cells at 1 nM incubated for 72 hrs by MTT assay relative to control; type: functional
MV4-11 [17] = assay: Antiproliferative activity against human MV4-11 cells at 10 nM incubated for 72 hrs by MTT assay relative to control; type: functional
Rattus norvegicus [18] = assay: Induction of calcium transport in intestine of vitamin D-deficient Sprague-Dawley rat at 780 pmol, ip administered daily for 4 days; type: functional, organism-based; conditions: time 4.0 day
MV4-11 [19] = assay: Effect on cell cycle distribution in human MV4-11 cells assessed as accumulation at G0/G1 phase at 1000 nM incubated for 72 hrs; type: functional, cell-based
HCC4006 [20] = assay: Antiproliferative activity against human HCC4006 cells assessed as inhibition of cell proliferation at 1000 nM incubated for 72 hrs by SRB assay relative to control; type: functional
[21] = Antiproliferative activity against human LUDLU-1 cells at 1000 nM incubated for 72 hrs by SRB assay relative to control; type: functional
[22] = Antiproliferative activity against human LUDLU-1 cells at 100 nM incubated for 72 hrs by SRB assay relative to control; type: functional
NCI-H226 [23] = assay: Antiproliferative activity against human NCI-H226 cells at 100 nM incubated for 72 hrs by SRB assay relative to control; type: functional
NCI-H226 [24] = assay: Antiproliferative activity against human NCI-H226 cells at 1000 nM incubated for 72 hrs by SRB assay relative to control; type: functional
HCC4006 [25] = assay: Antiproliferative activity against human HCC4006 cells assessed as inhibition of cell proliferation at 100 nM incubated for 72 hrs by SRB assay relative to control; type: functional

Row | SMILES | Activity (MV4-11 [1]) | Activity (MV4-11 [2]) | inhibition at 0.01 µM (HCC4006 [3]) | inhibition at 0.1 µM (MCF7) | Activity (Rattus norvegicus [4]) | inhibition at 0.1 µM (HL-60 [5]) | Activity (ROS 17/2.8) | IC50 (HCC4006 [6]) | inhibition at 0.1 µM (MV4-11 [7]) | Activity (MV4-11 [8]) | Activity (Rattus norvegicus [9]) | inhibition at 1 µM (HL-60 [10]) | inhibition at 0.001 µM (HCC4006 [11]) | Activity (MCF-10A) | Activity (CAL-51) | inhibition at 1 µM (MV4-11 [12]) | Activity (MDA-MB-231) | Activity (MV4-11 [13]) | Activity (MV4-11 [14]) | Activity (Rattus norvegicus [18]) | other results
1 | C=C1[C@H](O)CC(=C/C=C2\CCC[C@@]3(C)[C@H]2CCCC[C@H]3[C@H](C)CCCC(C)(C)O)C[C@H]1O | Active | Active | 44.8% | 31% | Active; Second Most Potent Compound But Exhibited Less Activity Than Calcitriol | 35% | Active; Exhibited Higher Potency Than Calcitriol | 27.7 nM | 32.6% | Active | Active; Second Most Potent Compound But Exhibited Less Activity Than Calcitriol | 47.6% | 39.1% | Non-toxic | inactive | 50% | inactive | Active; Exhibited Highest Expression | – | – | Activity (NCI-H1975): Active; Maintained Its Activity At Constant Level In Tested Concentration But Without Statistical Significance For Lowest Concentrations; Activity (NCI-H1650): Active; Maintained Its Activity At Constant Level In Tested Concentration But Without Statistical Significance For Lowest Concentrations
2 | C[C@H](CCCC(C)(C)O)[C@@H]1CCCC[C@H]2/C(=C/C=C3C[C@@H](O)C(=CCCO)[C@H](O)C3)CCC[C@@]21C | Active | – | 39.1% | 21.3% | Active; Most Potent Compound And Equal In Activity To Calcitriol | 22.1% | Active; Exhibited Higher Potency Than Calcitriol | – | 25.5% | Active | – | 27.5% | 37.5% | – | inactive | 32% | inactive | Active | Active | – | Activity (Rattus norvegicus [15]): Active; Most Potent Compound And Equal In Activity To Calcitriol
3 | C=C1/C(=C\C=C2/CCC[C@@]3(C)[C@H]2CCCC[C@H]3[C@H](C)CCCC(C)(C)O)C[C@@H](O)C[C@@H]1O | Active | Active | – | 37.9% | – | 17.1% | Active; Exhibited Higher Potency Than Calcitriol | 49.6 nM | 44.2% | Active | – | 39.7% | – | – | inactive | 42.8% | inactive | Active | Active | inactive | inhibition at 0.001 µM (MV4-11 [16]): 23.7%; inhibition at 0.01 µM (MV4-11 [17]): 41%; Activity (Rattus norvegicus [15]): inactive
4 | CC1[C@H](O)CC(=C/C=C2\CCC[C@@]3(C)[C@H]2CCCC[C@H]3[C@H](C)CCCC(C)(C)O)C[C@H]1O (some centres undefined) | inactive | – | – | 29% | – | 20.5% | Not active; Exhibited Equal Or Slightly Less Potency Than Calcitriol; Exhibited Least Activity | 82.6 nM | 39.7% | Active | inactive | 43.8% | – | – | inactive | 29.7% | inactive | inactive | – | inactive | Activity (MV4-11 [19]): Active
5 | C=C1/C(=C\C=C2/CCC[C@]3(C)[C@@H]([C@H](C)CCCC(C)(C)O)CC[C@@H]23)C[C@@H](O)C[C@@H]1O [CALCITRIOL] | – | – | 30.4% | – | – | 35.9% | – | – | 39.8% | – | – | 54.9% | 10.1% | – | – | 48.8% | – | – | – | – | inhibition at 1 µM (HCC4006 [20]): 17%; inhibition at 1 µM [21]: 10%; inhibition at 0.1 µM [22]: 15%; inhibition at 0.1 µM (NCI-H226 [23]): 15%; inhibition at 1 µM (NCI-H226 [24]): 10%; inhibition at 0.1 µM (HCC4006 [25]): 14%
6 | C[C@H](CCCC(C)(C)O)[C@@H]1CCCC[C@H]2/C(=C/C=C3C[C@@H](O)C[C@H](O)C3)CCC[C@@]21C | Active; Exhibited Highest Expression | Active | – | 30.8% | – | 17.9% | Active; Exhibited Equal Or Slightly Less Potency Than Calcitriol | 45.2 nM | 25.3% | Active | inactive | 24.2% | – | Non-toxic | inactive | 31.2% | inactive | Active | Active | inactive | Activity (MV4-11 [19]): Active
